Experimental data published in patent publication US11524962B2, “Substituted pyrrolo[2,3-d]pyrimidines as inhibitors of protein arginine methyl transferase 5 (PRMT5)” (PRELUDE THERAPEUTICS, INCORPORATED, priority 2017, dated 2022).

What follows are compounds tested against PRMT5/MEP50 complex (Homo sapiens (Human), UniProt O14744) (assay: Flash plate assay). Settings: read-out: Flash Plate IC50.
Type: biochemical
Procedure: Flash plate assay. Compounds were solubilized, and 3-fold diluted in 100% DMSO. […] Standard reactions were performed in a total volume of 30 μl in assay buffer, with 300 nM histone H4 based AcH4-23 (Anaspec: AS-65002) as substrate. To this was added the PRMT5/MEP50 complex diluted to provide a final assay concentration of 2.5 nM and the compounds were allowed to preincubate for 20 minutes at 37° C. The reaction was initiated by adding S-[3H-methyl]-adenosyl-L-methionine (PerkinElmer: NET155001MC) to final concentration of 1 μM. Following a 30 minutes incubation at 37° C., the reaction was stopped by adding 25 μL of 8M Guanidine HCl. Prepare streptavidin YSI SPA beads (Perkinelmer: RPNQ0012) at 0.3 mg/mL in assay buffer. To each reaction, add 150 μL of SPA beads suspension, and incubated while shaking at room temperature for 30 minutes. The plate was centrifuged at 100×g for 30 second before reading in a scintillation counter. IC50 values were determined by fitting the data to the standard 4 parameters with Hill Slope using GraphPad Prism software. This procedure produced the Flash Plate data in Table 7.

Sequence of PRMT5/MEP50 complex (O14744 whole entry): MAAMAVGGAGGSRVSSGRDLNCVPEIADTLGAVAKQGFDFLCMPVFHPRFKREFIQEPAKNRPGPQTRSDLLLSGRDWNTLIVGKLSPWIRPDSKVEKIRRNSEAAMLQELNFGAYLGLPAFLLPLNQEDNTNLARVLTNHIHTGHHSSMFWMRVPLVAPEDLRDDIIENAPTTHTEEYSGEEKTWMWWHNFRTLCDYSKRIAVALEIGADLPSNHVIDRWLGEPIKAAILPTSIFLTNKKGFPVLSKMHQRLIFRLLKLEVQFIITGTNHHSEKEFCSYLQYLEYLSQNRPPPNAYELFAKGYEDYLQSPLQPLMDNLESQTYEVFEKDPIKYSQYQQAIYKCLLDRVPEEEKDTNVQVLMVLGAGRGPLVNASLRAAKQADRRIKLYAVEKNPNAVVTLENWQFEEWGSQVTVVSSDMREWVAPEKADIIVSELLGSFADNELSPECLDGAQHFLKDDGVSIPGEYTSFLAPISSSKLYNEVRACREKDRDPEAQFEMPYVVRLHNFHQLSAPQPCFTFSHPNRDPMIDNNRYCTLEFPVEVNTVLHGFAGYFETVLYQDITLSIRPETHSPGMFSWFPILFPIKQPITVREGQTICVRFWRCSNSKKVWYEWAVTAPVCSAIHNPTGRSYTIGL
Sequence of PRMT5/MEP50 complex (Q9BQA1 whole entry partner): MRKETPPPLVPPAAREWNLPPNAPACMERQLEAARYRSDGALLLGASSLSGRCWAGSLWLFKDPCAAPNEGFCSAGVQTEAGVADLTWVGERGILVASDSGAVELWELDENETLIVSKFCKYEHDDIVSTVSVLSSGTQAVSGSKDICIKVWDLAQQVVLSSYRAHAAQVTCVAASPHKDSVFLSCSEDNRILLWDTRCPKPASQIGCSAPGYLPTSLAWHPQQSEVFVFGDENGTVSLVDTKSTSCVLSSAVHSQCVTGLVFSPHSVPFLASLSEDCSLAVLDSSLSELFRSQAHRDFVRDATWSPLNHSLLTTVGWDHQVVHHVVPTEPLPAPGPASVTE

Row | Structure (SMILES) | IC50 [µM]
1 | OCc1ncnc2c1ccn2[C@@H]1O[C@H]([C@H](O)c2ccc3c(c2)CC3)[C@@H](O)[C@H]1O [Example 43, (2R,3S,4R,5R)-2-((R)-bicyclo[4.2.0]octa-1,3,5-trien-3-yl(hydroxy)methyl)-5-(4-(hydroxymethyl)-7H-pyrrolo[2,3-d]pyrimidin-7-yl)tetrahydrofuran-3,4-diol] | 0.181
2 | CN(C)C(=O)Nc1ncnc2c1ccn2[C@@H]1O[C@H]([C@H](O)c2ccc3c(c2)CC3)[C@@H](O)[C@H]1O [Example 23, 3-(7-((2R,3R,4S,5R)-5-((R)-bicyclo[4.2.0]octa-1(6),2,4-trien-3-yl(hydroxy)methyl)-3,4-dihydroxytetrahydrofuran-2-yl)-7H-pyrrolo[2,3-d]pyrimidin-4-yl)-1,1-dimethylurea] | 0.697
3 | Cc1ncnc2c1ccn2[C@@H]1O[C@H]([C@@H](O)c2ccc3c(c2)CC3)[C@@H](O)[C@H]1O [Example 47, (2R,3S,4R,5R)-2-((S)-bicyclo[4.2.0]octa-1,3,5-trien-3-yl(hydroxy)methyl)-5-(4-methyl-7H-pyrrolo[2,3-d]pyrimidin-7-yl)tetrahydrofuran-3,4-diol] | 0.274
4 | O[C@@H]1[C@H](O)[C@@H]([C@H](O)c2ccc3c(c2)CC3)O[C@H]1n1ccc2c(CCl)ncnc21 [Example 51, (2R,3S,4R,5R)-2-((R)-bicyclo[4.2.0]octa-1(6),2,4-trien-3-yl(hydroxy)methyl)-5-(4-(chloromethyl)-7H-pyrrolo[2,3-d]pyrimidin-7-yl)tetrahydrofuran-3,4-diol] | 0.051
5 | C=C(C)c1ncnc2c1ccn2[C@@H]1O[C@H]([C@H](O)c2ccc3c(c2)CC3)[C@@H](O)[C@H]1O [Example 40, (2R,3S,4R,5R)-2-((R)-bicyclo[4.2.0]octa-1(6),2,4-trien-3-yl(hydroxy)methyl)-5-(4-(prop-1-en-2-yl)-7H-pyrrolo[2,3-d]pyrimidin-7-yl)tetrahydrofuran-3,4-diol] | 1.03
6 | CC(C)c1ncnc2c1ccn2[C@@H]1O[C@H]([C@H](O)c2ccc3c(c2)CC3)[C@@H](O)[C@H]1O [Example 41, (2R,3S,4R,5R)-2-((R)-bicyclo[4.2.0]octa-1(6),2,4-trien-3-yl(hydroxy)methyl)-5-(4-isopropyl-7H-pyrrolo[2,3-d]pyrimidin-7-yl)tetrahydrofuran-3,4-diol] | 0.23
7 | C[C@](O)(c1ccc2c(c1)CC2)[C@H]1O[C@@H](n2ccc3c(N)ncnc32)[C@H](O)[C@@H]1O [Example 39, (2R,3R,4S,5S)-2-(4-amino-7H-pyrrolo [2,3-d]pyrimidin-7-yl)-5-((S)-1-(bicyclo[4.2.0]octa-1(6),2,4-trien-3-yl)-1-hydroxyethyl)tetrahydrofuran-3,4-diol] | 1.24
8 | O[C@@H]1[C@H](O)[C@@H]([C@H](O)c2ccc3c(c2)CC3)O[C@H]1n1ccc2c(CCOCc3ccccc3)ncnc21 [Example 55, (2R,3R,4S,5R)-2-(4-(2-(benzyloxy)ethyl)-7H-pyrrolo[2,3-d]pyrimidin-7-yl)-5-((R)-bicyclo[4.2.0]octa-1(6),2,4-trien-3-yl(hydroxy)methyl)tetrahydrofuran-3,4-diol] | 0.2
9 | CCCCc1ncnc2c1ccn2[C@@H]1O[C@H]([C@H](O)c2ccc3c(c2)CC3)[C@@H](O)[C@H]1O [Example 42, (2R,3S,4R,5R)-2-((R)-bicyclo[4.2.0]octa-1,3,5-trien-3-yl(hydroxy)methyl)-5-(4-butyl-7H-pyrrolo[2,3-d]pyrimidin-7-yl)tetrahydrofuran-3,4-diol] | 0.392
10 | C=Cc1ncnc2c1ccn2[C@@H]1O[C@H]([C@H](O)c2ccc3c(c2)CC3)[C@@H](O)[C@H]1O [Example 46, (2R,3S,4R,5R)-2-((R)-bicyclo[4.2.0]octa-1(6),2,4-trien-3-yl(hydroxy)methyl)-5-(4-vinyl-7H-pyrrolo[2,3-d]pyrimidin-7-yl)tetrahydrofuran-3,4-diol] | 2.06
